The subject of one assay is HCT-116. Briefly: Luminex 200 cytokine profiling of cell culture supernatant. Particulars: 1 μM or 5 μM, forty-eight hours. Type of assay: cell-based, human. How it is done: (§1) Collection of cell culture supernatants used in cytokine measurements. Cells were plated at 3.5×10^4 cells in a 48-well plate (Thermo Fisher Scientific, Waltham, MA, USA) in complete medium and incubated at 37° C. with 5% CO2. At twenty-four hours after plating, almost all the tumor cells were adherent to the bottom of the flask and the complete medium was replaced with the drug-containing medium. Subsequently, the culture supernatants were collected after forty-eight hours of incubation and were frozen at −80° C. until the measurement of cytokines was performed. On the day of analysis, samples were thawed and centrifuged to remove cellular debris.
(§2) Human cytokine profiling. Human cell line culture supernatants were analyzed using an R&D systems Human Premixed Multi-Analyte Kit (R&D Systems, Inc., Minneapolis, MN, USA) and a Luminex 200 (RRID: SCR_018025) Instrument (LX200-XPON-RUO, Luminex Corporation, Austin, TX, USA) according to the manufacturer's instructions. Sample levels of TNF-α, 4-1BB/TNFRSF9/CD137, IL-8/CXCL8, Ferritin, IFN-β, IL-10, CCL2/JE/MCP-1, VEGF, CXCL13/BLC/BCA-1, IFN-γ, CCL20/MIP-3 α, CCL3/MIP-1 α, CCL22/MDC, CCL4/MIP-1 β, Fas Ligand/TNFSF6, IL-17/1L-17A, IL-2, BAFF/BLyS/TNFSF13B, GM-CSF, CXCLS/ENA-78, TRANCE/TNFSF11/RANK L, CXCL9/MIG, G-CSF, IFN-γ R1/CD119, VEGFR3/Flt-4, C-Reactive Protein/CRP, CXCL11/I-TAC, IL-21, CXCL14/BRAK, IL-6, Fas/TNFRSF6/CD95, TRAIL R3/TNFRSF10C, IL-4, CCL5/RANTES, PD-L1/137-H1, CCL7/MCP-3/MARC, Chitinase 3-like 1, CXCL10/IP-10/CRG-2, IL-1 μ/IL-1F2, IL-7, Prolactin, CCL8/MCP-2, TRAIL R2/TNFRSF10B, M-CSF, IL-15, Granzyme B, IFN-α, TREM-1, IL-12/1L-23 p40, TRAIL/TNFSF10, CCL11/Eotaxin, and 1L-18/1L-1F4. Quantitative analysis with 6 standards and a minimum of 50 counts per bead region was used with the Luminex to generate analyte values reported as picograms/milliliter (pg/mL). Sample concentrations less than the lower limit of detection for each particular analyte were recoded as the lower limit value divided by 10. Sample concentrations above the upper limit of detection for a particular analyte were recoded as the upper limit of detection.
(§3) Huntington, Louie, Zhou, & EI-Deiry, Oncotarget, 12, 1980-1991 (2021). The inventors in this EXAMPLE treated tumor cells (HCT-116, HT-29) with 1 μM or 5 μM elraglusib for forty-eight hours and subsequently analyzed the cell culture supernatant using Luminex 200 technology (FIG. 2H,I).

Another assay relates to HT-29. The description is as above. In kind it is cell-based, human. Particulars: 1 μM or 5 μM, forty-eight hours. How it is done:
as §1, §2, §3

The next assay concerns NK-92. Briefly: 10× single-cell sequencing. Particulars: 1 μM, twenty-four hours vs DMSO. In kind it is cell-based, human. How it is done:
(§4) Single-cell RNA sequencing. Single cells were captured and 3′ single-cell gene expression libraries were conducted (Next GEM v3.1) using the 10× Genomics Chromium system by SingulOmics (SingulOmics, New York, NY, USA). Gene expression libraries were sequenced with ˜200 million PE150 reads per sample on Illumina (RRID: SCR_016387) NovaSeq (Illumina, Inc., San Diego, CA, USA). After sequencing, clean reads were then analyzed with human reference genome GRCh38 using Cell Ranger v6.1.2 (RRID: SCR_017344, 10× Genomics, Pleasanton, CA, USA). Data were analyzed and visualized using Loupe Browser (RRID: SCR_018555, 10× Genomics, Pleasanton, CA, USA).
(§5) To determine if there was any heterogeneity in response to drug treatment, the inventors employed a 10× single-cell sequencing analysis on both immune cell lines (TALL-104, NK-92) treated with low-dose 1 μM elraglusib or vehicle control (DMSO) for twenty-four hours. Samples clustered by cell type when aggregate data were visualized using a t-SNE plot (FIG. 3G). […] The inventors noted an increase in immune cell attractant CCL4 in the NK-92 cells and an increase in immune cell chemoattractant CXCR4 in the TALL-104 cells.

The next assay deals with TALL-104. Briefly: 10× single-cell sequencing. In kind it is cell-based, human. Particulars: 1 μM, twenty-four hours vs DMSO. How it is done:
as §4, §5

Another assay relates to SW480. Briefly: multicolor co-culture of SW480 and donor-derived CD8+ T cells. Particulars: co-culture with donor-derived CD8+ T cells, 24 hours, normalized.

Protocol for SW480: Isolation of donor-derived CD8+ T cells. An Easy Step Human CD8+ T Cell Isolation Kit was used to isolate CD8+ T cells from a donor PBMC sample via negative selection (Cat #, 17913, Stem Cell Technologies, Vancouver, Canada).
Multicolor immune cell co-culture experiments. A total of 10,000 HCT-116, SW480, or HT-29 colorectal cancer cells were plated per well in a clear-bottom, black-walled 48-well tissue culture plate and were allowed to adhere overnight. Cells were subsequently treated with DMSO, 5 μM or 10 μM elraglusib, or 10,000 TALL-104, donor-derived CD8+ T cells, or NK-92 cells (for an effector-to-tumor ratio of 1:1) for twenty-four hours. Immune cell monocultures were treated with DMSO, 5 μM or 10 μM elraglusib and cell viability was monitored to ensure that the concentrations of drug used were not cytotoxic to immune cells. […] 10× images were captured using a Nikon Ti-U Inverted Fluorescence Microscope and NIS-Elements F Package imaging software 3.22.00 Build 710 (Nikon Instruments Inc., New York, NY, USA). The number of red/green color cells in random fields was determined using thresholding and particle analysis in the Fiji modification (RRID: SCR_002285) of ImageJ and expressed as a dead/live cell ratio. […] At least one hundred cells were evaluated per sample, with three independent replicates. […]

Take `Cn1cc(C2=C(c3coc4ccc(F)cc34)C(=O)NC2=O)c2cc3c(cc21)OCO3` [elraglusib]: in the assay on HCT-116, the GDF-15 secretion result is listed as “decreased secretion”, the GM-CSF secretion result is recorded as “decreased secretion” and the VEGF secretion result is recorded as “decreased secretion”. In the assay with HCT-116 (cell line not given), the CCL5/RANTES in supernatant entry was “downregulated”, the DcR3 in supernatant entry is “downregulated”, the Fas in supernatant entry is recorded as “downregulated” and the “soluble PD-L1 (sPD-L1) in supernatant” value is “downregulated”. Moreover, in the assay with HT-29, the GDF-15 secretion entry is “decreased secretion”, the GM-CSF secretion result is reported as “decreased secretion” and the VEGF secretion result is listed as “decreased secretion”. In addition, in the assay on HT-29 (cell line not given), the CCL5/RANTES in supernatant entry is “downregulated”, the DcR3 in supernatant entry was “downregulated”, the Fas in supernatant result is on record as “downregulated” and the “soluble PD-L1 (sPD-L1) in supernatant” value was “downregulated”. Moreover, in the assay on NK-92, the CCL4 expression result is listed as “increase”, the CD69 expression entry is given as “increase” and the CHI3L1 expression result is “decrease”. In the assay with TALL-104, the CD69 expression entry was “increase”, the CHI3L1 expression entry is “decrease” and the CXCR4 expression result was “increase”. Also, in the assay with SW480 (5 μM), the “dead cells out of total cells” value is listed as 65%. Also, in the assay with SW480 (10 μM), the “dead cells out of total cells” value was 75%.

These data come from patent US20240041830A1, “CIRCULATING BIOMARKERS OF RESPONSE TO PD-1/PD-L1 BLOCKADE AND GSK-3 INHIBITION” (Brown University, priority 2022, published 2024).
